“Also recorded” adds a separate entry of the source.
What was measured:
[1] = GFET sensor, empty liposomes (control); assay type: biochemical
Description: The OR liposomes were functionalised onto the graphene surface via a non-covalent route using PBASE as the molecular linker as shown in FIG. 13. The OR liposomes were diluted at 1:10 ratio with 1×PBS (pH7.4). The cleaned GFETs were immersed in 1 mM PBASE solution in methanol for 1 hour. The devices were washed three times in methanol and subsequently washed three times in 1×PBS to remove the excess PBASE and residual methanol in the channel respectively. The OR liposomes were diluted 1:10 with 1×PBS (pH 7.4) and 100 μL of the OR dilution was placed in the graphene channel and incubated at room temperature for one hour in a closed petri dish. After OR liposome functionalization, the devices were washed in 1×PBS for 10 s before measurements.
The OR liposome immobilised GFET device with a PDMS well mounted on it was placed onto the probe station and the source and drain connections were made by micromanipulators. 100 μl of PBS containing 1% dimethyl sulfoxide (DMSO) was added to the well and the Ag/AgCl standard electrode was placed into the buffer. The stock solution of ligands at 100 mM concentrations were prepared by dissolving them in DMSO as they are not stable in aqueous buffer. The stock solution was stored at 4° C. The ligand solution for sensing was prepared by diluting the stock solution in 1×PBS buffer containing 1% DMSO to set concentrations from 10 fM to 100 pM. […]

Or10a/Orco = target: T1, Or10a/Orco (Drosophila melanogaster, UniProt Q9VYZ1); experiment: QCM-D sensor, Or10a/Orco liposomes; assay type: biochemical; conditions: 1.6 to 1000 μM in PBS with 1% DMSO
T1 construct: his-tag; made in house; host or cells: baculovirus-infected Sf9 cells
T1 sequence (Q9VYZ1 1-406): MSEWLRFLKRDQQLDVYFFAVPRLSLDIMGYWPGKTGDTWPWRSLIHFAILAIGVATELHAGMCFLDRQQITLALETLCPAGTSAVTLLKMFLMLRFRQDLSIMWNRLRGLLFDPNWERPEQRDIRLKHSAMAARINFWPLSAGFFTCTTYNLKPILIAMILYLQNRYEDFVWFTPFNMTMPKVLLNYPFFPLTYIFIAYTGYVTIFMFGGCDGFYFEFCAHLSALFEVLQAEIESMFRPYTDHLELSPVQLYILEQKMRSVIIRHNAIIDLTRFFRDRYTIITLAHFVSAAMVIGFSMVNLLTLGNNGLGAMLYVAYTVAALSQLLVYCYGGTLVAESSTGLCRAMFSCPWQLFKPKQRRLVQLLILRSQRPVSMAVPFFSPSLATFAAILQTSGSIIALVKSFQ
T1 sequence (Q9VNB5 1-486 partner): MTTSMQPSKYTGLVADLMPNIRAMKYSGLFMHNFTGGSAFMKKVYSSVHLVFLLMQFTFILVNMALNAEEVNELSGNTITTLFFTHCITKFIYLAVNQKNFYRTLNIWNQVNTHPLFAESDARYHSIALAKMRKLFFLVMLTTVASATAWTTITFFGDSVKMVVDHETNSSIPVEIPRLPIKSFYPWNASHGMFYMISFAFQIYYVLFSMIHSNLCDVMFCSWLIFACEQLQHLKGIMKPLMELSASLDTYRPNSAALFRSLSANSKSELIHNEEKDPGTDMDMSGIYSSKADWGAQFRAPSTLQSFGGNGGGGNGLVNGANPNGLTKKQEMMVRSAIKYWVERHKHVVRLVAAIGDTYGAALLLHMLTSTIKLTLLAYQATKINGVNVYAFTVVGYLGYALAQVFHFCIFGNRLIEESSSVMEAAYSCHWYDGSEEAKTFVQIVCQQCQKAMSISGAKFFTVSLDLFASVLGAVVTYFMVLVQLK
Description: Gold (100 nm) sensor crystals were sonicated in ethanol and milli-Q water for 15 minutes each respectively. A 5:1:1 volume ratio of milli-Q water, ammonia (25%), and hydrogen peroxide (30%) was heated to 75° C. for 5 minutes and the sonicated crystals were placed in the heated solution for 5 minutes. Then the crystals were removed from the solution and rinsed with milli-Q water before drying with nitrogen gas. The clean gold crystals were thiol-functionalized by exposing them to 2 mM ethanolic solution of MHA overnight followed by washing with ethanol solution in order to remove excess or loosely bound molecules. NHS/EDC was prepared using 2:1 mol:mol ratio of EDC:NHS (100 mM EDC, 50 mM NHS) in 2 ml PBS (pH=6.5) solution. Each OrX/liposome stock solution was diluted 100 fold for QCM-D measurements in PBS buffer solution (pH=7.4). The SAM functionalized crystals were then placed into the Q-sense analyser instrument (Biolin Scientific) chamber and flowed with the NHS/EDC, Or10a/liposomes or Or10a/Orco liposomes, and various concentrations of methyl hexanoate (1.6 μM, 8 μM, 20 μM, 40 μM, 100 μM, 200 μM, 500 μM and 1000 μM) in PBS buffer solution containing 1% DMSO to measure the changes in frequency (Δf) and dissipation (ΔD) values.

Structure (SMILES)	sensor response to target ligand [1]	change in oscillation frequency on ligand exposure (Or10a/Orco)
CCCCCC(=O)OC [methyl hexanoate]	lack of response	negligible response; also recorded: not observed
COC(=O)c1ccccc1O [methyl salicylate]	lack of response	greater response; also recorded: increase in the frequency

From US20210255184A1, “Biosensor Device and Methods” (The New Zealand Institute for Plant and Food Research …, priority 2018, published 2021)
